In PMC12049414 (Nature Communications, 2025) one finds Ki data, which are given here for one compound.

This test addresses T1, human vesicular polyamine transporter (hVPAT) (Homo sapiens, UniProt Q6NT16).
T1 sequence (Q6NT16 1-456): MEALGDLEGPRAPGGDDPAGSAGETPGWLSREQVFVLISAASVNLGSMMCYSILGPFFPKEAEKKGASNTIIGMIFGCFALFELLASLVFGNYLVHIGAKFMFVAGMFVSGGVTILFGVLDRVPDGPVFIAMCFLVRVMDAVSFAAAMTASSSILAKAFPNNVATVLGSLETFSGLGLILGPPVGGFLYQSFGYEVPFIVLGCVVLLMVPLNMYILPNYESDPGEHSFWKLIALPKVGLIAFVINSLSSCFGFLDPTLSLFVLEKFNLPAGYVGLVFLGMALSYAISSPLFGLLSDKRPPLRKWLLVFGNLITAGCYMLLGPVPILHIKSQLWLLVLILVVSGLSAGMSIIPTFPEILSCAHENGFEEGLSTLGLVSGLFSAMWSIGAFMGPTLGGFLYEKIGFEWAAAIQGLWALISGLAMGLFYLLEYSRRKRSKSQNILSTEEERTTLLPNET
Kind of test: cryo-EM structure at […] Å. It is filed as biochemical.

Compound `COc1cc2c(cc1OC)C1CC(=O)C(CC(C)C)CN1CC2` (stereo not shown) [TBZ, tetrabenazine] came in with an inhibitory constant (Ki) of 2 µM.

For orientation: Ki means a dissociation constant, usually derived from enzyme kinetics or from competition with a known ligand. Read a low Ki as higher affinity.
